# Patent publication US9376700B2, “Methods of modifying N-termini of a peptide or protein using transferases” (The Trustees of the University of Pennsylvania, priority 2012, dated 2016)
# Experiments:
# Type in all cases: biochemical
# [1] = molecular target: E. coli aminoacyl transferase (AaT) (Escherichia coli, UniProt P0A8P1); test: LysAlaAcm ligation assay: AaT-catalyzed transfer from aminoacyl adenosine donor to LysAlaAcm, HPLC at 325 nm; set-up: made in house; host or cells: E. coli BL21-Gold (DE3), plasmid pEG6, Ni-NTA purified; conditions: single addition of 1 mM donor, 100 μM LysAlaAcm, 2.26 μM AaT, 37° C., 4 h, no additive
# Sequence of E. coli aminoacyl transferase (AaT) (P0A8P1 whole entry): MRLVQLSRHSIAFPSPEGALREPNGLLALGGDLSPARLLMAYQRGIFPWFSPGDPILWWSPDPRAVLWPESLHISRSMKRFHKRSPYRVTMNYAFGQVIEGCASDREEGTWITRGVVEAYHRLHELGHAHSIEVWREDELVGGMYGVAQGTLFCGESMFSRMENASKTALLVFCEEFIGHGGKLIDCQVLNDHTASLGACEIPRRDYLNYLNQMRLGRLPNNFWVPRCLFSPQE
# Experimental: Each ligation reaction, 125 μL total volume, contained the following reagents: aminoacyl adenosine donor (1 mM), recombinant His10-tagged E. coli aminoacyl transferase (2.26 μM), and LysAlaAcm (100 μM) in the AaT Ligation Buffer (50 mM HEPES pH 8.0, 150 mm KCl, 10 mM MgCl2). The reaction mixtures were incubated at 37° C. for four hours and quenched with 1% acetic acid. The proteins were extracted from the reactions via acetone precipitation. The reactions were precipitated using 4× reaction volume of acetone and cooled at −20° C. for 1 h. Next, the reactions were centrifuged at 13,200 rpm at 4° C. for 20 min to separate the reaction from precipitated protein. The supernatant was transferred to fresh 1.5 mL centrifuge tubes and allowed for acetone evaporation overnight at room temperature. After acetone evaporation, the supernatant was dried in a Speedvac (Savant, Thermo Scientific, Fisher Inc.) for 30 min to remove residual acetone. The resulting reaction volume was dissolved up to 1.2 mL using Milli-Q water and analyzed by HPLC (gradient below) to determine ligation yield by integration of separated peak intensities monitored at 325 nm. Collected HPLC fractions were characterized through MALDI MS analysis. […] Reactions using Phe-pdCpA as donor were carried out in an identical fashion (Ellman, et al., 1991, Methods Enzymol. 202:301-336).
# All HPLC analyses of LysAlaAcm ligations were monitored on an Agilent HPLC using a Waters C18 column (Milford, Mass.).
# All HPLC analyses of LysAlaAcm ligations were monitored as described elsewhere herein (Gradient 1).
# The extent of transfer was evaluated by HPLC analysis of reactions with adenosyl donor, AaT or BpT, and an aminocoumarin-labeled reporter peptide (for AaT, LysAlaAcm was used as previously described by Tirrell and co-workers; for BpT, AspAlaAcm was used in an analogous fashion) (Connor et al., 2008, ChemBioChem 9:366-369). Monitoring LysAlaAcm or AspAlaAcm acylation in crude reaction mixtures using absorbance at 325 nm conveniently eliminates background due to other proteins and nucleic acids, although some non-natural amino acids such as naphthylalanine (Nap) and methoxycoumarinylalanine (Mcm) also absorb in this range.
# To evaluate substrate scope, reactions were analyzed after 4 h, when transfer should be complete for the fully enzymatic reaction with Phe tRNA synthetase (Connor et al., 2008, ChemBioChem 9:366-369).
# [2] = molecular target: T1, E. coli aminoacyl tRNA transferase (AaT) (Escherichia coli, UniProt P0A8P1); test: AaT-catalyzed α-casein N-terminal modification (Edman degradation, tryptic digest MALDI MS); conditions: double addition of donor
# T1 construct: made in house; host or cells: E. coli BL21-Gold (DE3), plasmid pEG6, Ni-NTA purified
# T1 sequence (P0A8P1 whole entry): as above
# Experimental: HEPES pH 8.0, 1.50 mM KO, 10 mM MgCl2) and AaT (0.05 mg). The reaction mixture was incubated at 37° C. for 12 h, AaT was removed using Ni^2+ resin (Ni-NTA Superflow, Qiagen), and then buffer exchanged four times into phosphate buffered saline (PBS, 12 mM NaH2PO4, 50 mM NaCl, 4.7 mM KCl, pH 8.0) by Spectra/Por 1 dialysis tubing (Spectrum Laboratories; Rancho Dominguez, Calif.). Azf-modified α-casein was used directly after buffer exchange into PBS. Aliquots (1 nmol) of α-casein were diluted into PBS (22 μL) containing either fluorescein-alkyne (FlAlk, 91 μM) or propargylamine (Alk, 227 μM) for copper-catalyzed azide-alkyne cycloaddition (CuAAC). […] Reactions were boiled with gel loading dye LDS (Pierce; Rockford, Ill.) for 10 min at 95° C. and analyzed by SDS-PAGE. Fluorescence images were obtained with a Geldoc (BioRAD; Hercules, Calif.) using an excitation wavelength of 302 nm for detection of fluorescein. α-Casein was also directly visualized by Coomassie Brilliant Blue staining.
# α-Casein-Azf (33 or α-casein (33 μg) was digested with sequencing grade modified Trypsin (0.6 μg) in 27 μL of 25 mM ammonium bicarbonate pH 7.5 (freshly prepared). Digestions were carried out at 37° C. for 14 h. Trypsin digest aliquots (1 μL) were combined with α-cyano-4-hydroxycinnamic acid (1 μL of a saturated solution in 1:1 H2O/CH3CN with 1% TFA) and analyzed by MALDI MS. […]
# [3] = molecular target: T1, E. coli aminoacyl tRNA transferase (AaT); test: α-Casein labeling in cleared E. coli cell lysate with unpurified AaT, then click reaction with FlAlk; conditions: fluorescence after labeling with FlAlk
# Experimental: AaT was expressed in E. coli BL21-Gold (DE3) cells as previously described. A cleared cell lysate was obtained by centrifugation following cell lysis using sonication. Protein were modified in a final reaction volume of 110 μL with Azf-A (4c, 3 mM) using AaT (25 from cleared lysate in AaT buffer (50 mM HEPES pH 8.0, 150 mM KCl, 10 mM MgCl2). α-Casein (0.012 mg or 0.12 mg) was added to the reaction and incubated at 37° C. for 2 h, after 1 h an additional 0.3 μmole of 4c was added. For control reactions, equivalent volumes were replaced with water. Excess 4c was removed by buffer exchange four times against phosphate buffered saline (PBS, 12 mM NaH2PO4, 50 mM NaCl, 4.7 mM. KCl, pH 8.0) by Spectra/Por 1 dialysis tubing. Aliquots (18 μL) of 4c modified lysates were diluted to a final volume of 22 pit using PBS containing FlAlk (182 μM) for copper-catalyzed “click” reactions. The “click” reaction was initiated by addition of CuSO4 (100 μM), THPTA (500 μM), and sodium ascorbate (5 mM). The reaction mixtures were analyzed by PAGE gel using Coomassie staining and fluorescence as above.
# After AaT-catalyzed modification of α-casein with Azf, residual 4c was removed by dialysis. […] Azf transfer was successful, as shown by the observation of fluorescence after labeling with FlAlk.
smiles,measurement,setting,value
"[N-]=[N+]=Nc1ccc(C[C@H](N)C(=O)O[C@@H]2[C@H](O)[C@@H](CO)O[C@H]2n2cnc3c(N)ncnc32)cc1 [4c, (S)-(2R,3R,4R,5R)-2-(6-amino-9H-purin-9-yl)-4-hydroxy-5-(hydroxymethyl)tetrahydrofuran-3-yl 2-amino-3-(4-azidophenyl)propanoate]",Ligated Product Yield (%),[1],78.5 ± 5.2%
same,"Conversion of α-casein, trypsin digest and MALDI MS",[2],Complete conversion
same,Azf transfer to α-casein in crude E. coli lysate with unpurified AaT,[3],successful
